The values below come from patent EP2060564A1, “Non-peptidic promoters of apoptosis” (Ludwig-Maximilians-Universität München, priority 2007, dated 2009).

Several values for one entry are separate records, joined by “and”; a condition that tells them apart may be missing. Equal entries are not always repeated.

Test [1] deals with Human leukemia Jurkat T cells. Nature of the test: Quantification of apoptosis (Nicoletti, PI staining, flow cytometry) in Jurkat cells. Format: cell-based. Particulars: mean value and standard deviation (C.I.95), n = 3. The method, then:
Cell Culture. Human leukemia Jurkat T cells (clone J16), Jurkat T-cells stably transfected with either empty vector (Jurkat vector, pBabe Jurkat) or XIAP (Jurkat-XIAP) as well as the BIR-3 domain only (BIR-3-sp-RING-Jurkat) (kindly provided by Dr. Colin Duckett at the University of Michigan) were cultured (37°C and 5% CO2 in RPMI 1640 containing 2 mM L-glutamine (PAN Biotech, Aidenbach, Germany) supplemented with 10% FCS gold (PAA Laboratories, Cölbe, Germany) and 1% Pyruvat (Sigma Deisenhofen, Germany).
Detection an Quantification of Apoptosis. Quantification of apoptosis was performed according to Nicoletti et al. (J Immunol. Methods (1991) 139, 271-279). Briefly, cells were incubated for 24 h in a hypotonic buffer (0.1% sodium citrate, 0.1% Triton-X-100 and 50 µg/ml PI) and analyzed by flow cytometry on a FACSCalibur (Becton Dickinson, Heidelberg, Germany). Nuclei to the left of the G1-peak containing hypodiploid DNA were considered apoptotic.
Compounds were first tested for their apoptotic potential in Jurkat cells alone as well as in combination with sub-optimal concentrations of etoposide. […] Similar results were obtained for compound II-1 (55.8% apoptotic cells). Table 1: Percentage of apoptotic Jurkat cells measured after application of medium control, 0.75 µM etoposide, 25 µM test substance, and a mixture of 0.75 µM etoposide and 25 µM test substance, respectively.a
In general terms: In flow cytometry, cells or beads pass a laser one at a time.

Another test deals with Wildtype Jurkat cells. Put plainly: Clonogenic assay. Type of test: cell-based, Human. Particulars: 1h with 25µM compound and 500nM etoposide; colonies scored after 7 days (Figure 2). How it is done: (§1) Figure 2: Compound I-1 sensitizes to a reduction of etoposide-induced clonogenic survival. Wild type Jurkat cells were left untreated (A) or treated for 1h with 25µM of compound I-1 (B), 500nM etoposide (C) or a combination of both (D). After replacement into fresh methylcellulose medium, cells were incubated for 7 days. Afterwards colony number was counted (E). Bars, the mean ± SE of three independent experiments. *** P<0.001 (Anova/Bonferroni). Figure 3: Compound I-1 increases initiator caspase activities. Wild type Jurkat cells were left untreated or treated with 25µM of compound I-1, 500nM etoposide or a combination of both for the indicated time periods. Fluorescence measurements were performed for caspase-9 (A) and caspase-3 (B). Protein concentration was used for normalization. Bars, the mean ± SE of three independent experiments performed in triplicate. *** P<0.001 (Anova/Bonferroni).
Clonogenic assay. Wildtype Jurkat cells were left untreated or treated for 1h with 25µM test compound, 500nM etoposide or a combination of both. Subsequently, cells were washed with PBS and resuspended in culture medium (5x10^5 cells/ml). Cell suspensions were diluted 1:10 with methylcellulose (0.52%) medium containing 40% FCS. Cells were seeded in 96-well plates (100 µl) and colonies were scored after 7 days of culture.

Another test concerns caspase-3. Nature of the test: Caspase-3 activity assay (Ac-DEVD-AFC substrate). Format: cell-based, Human. Particulars: 25µM compound with 500nM etoposide, wild type Jurkat cells (Figure 3). The method, then:
as §1
(§2) Caspase-9/3 activity assay. Caspase-9/3 activity was measured using caspase-9(Ac-LEHD-AFC) or caspase 3(Ac-DEVD-AFC) substrates (both from Bachem AG, Bubendorf, Germany). […] The reading was performed in a plate-reading multifunction photometer (SPECTRAFLUOR PLUS, Tecan, Crailsheim, Germany). The activity was calculated from the difference between fluorescence in the 0 point and after 1h (for caspase-3) or after 3h (for caspase-9). […]

Test [2] relates to caspase-9, caspase-3 and PARP. Put plainly: Western Blot analysis of caspase-9, caspase-3 and PARP cleavage. Format: cell-based, Human. To be noted: 25µM compound with 500nM etoposide, wild type Jurkat cells, time dependent (Figure 4). How it is done: Figure 4: Compound I-1 activates initiator caspases and induces PARP cleavage. Wild type Jurkat cells were left untreated or treated with 25µM of compound I-1, 500nM etoposide or a combination of both for the indicated time periods. Expression of caspase-9, caspase-3 and PARP was assessed by Western Blot analysis. Cleavage products are indicated by arrows. Ponceau S was used as loading control. A representative experiment out of three independent experiments is shown.
Western Blot Analysis. Cells were collected by centrifugation, washed with ice-cold PBS and lysed in 1% Triton X-100, 0.15 M NaCl and 30 mM Tris-HCl pH 7.5 with the protease inhibitor complete™ (Roche, Mannheim, Germany) for 30 min. Lysates were centrifuge at 10,000xg for 10 min at 4°C. Equal amounts of protein were separated by SDS-PAGE (12% for XIAP) transferred to polyvinylidene difluoride membranes (Immobilon-P™, Millipore, Eschborn, Germany). Equal protein loading was controlled by coomassie staining of gels. Membranes were blocked with 5% fat-free milk powder in PBS containing 0.05% Tween-20 (1 h) and incubated with specific antibodies against XIAP (mouse antibody IgG1, clone 28, BD Transduction Laboratories, Heidelberg, Germany) overnight at 4°C. […]
For orientation: In western blotting, separated proteins are transferred to a membrane and probed.

Another test deals with T1, XIAP (Homo sapiens, UniProt P98170).
T1 construct: endogenous in cells
Put plainly: Western Blot analysis of XIAP protein level. Type of test: cell-based. Particulars: 25µM compound alone as well as in combination with 500nM etoposide; 16 and 24 h (Figure 5). How it is done: Figure 5: XIAP protein level is reduced by compound I-1. Cells were left untreated (CO) or treated with 25µM of compound I-1, 500nM etoposide or with combination of both for the indicated time periods. XIAP protein level was detected by Western Blot analysis. Ponceau S was used as loading control. A representative experiment out of three independent experiments is shown.
Western Blot Analysis. Cells were collected by centrifugation, washed with ice-cold PBS and lysed in 1% Triton X-100, 0.15 M NaCl and 30 mM Tris-HCl pH 7.5 with the protease inhibitor complete™ (Roche, Mannheim, Germany) for 30 min. Lysates were centrifuge at 10,000xg for 10 min at 4°C. Equal amounts of protein were separated by SDS-PAGE (12% for XIAP) transferred to polyvinylidene difluoride membranes (Immobilon-P™, Millipore, Eschborn, Germany). Equal protein loading was controlled by coomassie staining of gels. Membranes were blocked with 5% fat-free milk powder in PBS containing 0.05% Tween-20 (1 h) and incubated with specific antibodies against XIAP (mouse antibody IgG1, clone 28, BD Transduction Laboratories, Heidelberg, Germany) overnight at 4°C. Specific proteins were visualized by secondary antibodies conjugated to horseradish peroxidase and the ECL Plus™ Western Blotting detection reagent (Amersham Biosciences, Freiburg, Germany). […]

In test [3] the test system is Jurkat cells overexpressing full-length XIAP or BIR-3/Ring. Put plainly: Quantification of apoptosis in Jurkat cell lines overexpressing XIAP or BIR-3/Ring. Type of test: cell-based, Human. Particulars: wild type Jurkat cells and Jurkat cells overexpressing full-length XIAP or BIR-3/Ring; with low dose of etoposide (Figure 1). How it is done: Figure 1: Compound I-1 sensitizes different Jurkat cell lines towards etoposide-induced apoptosis. Compound I-1 was tested in wildtype human leukemia Jurkat T cells (A), as well as in Jurkat cells stably transfected with empty vector (B), full-length XIAP overexpressing Jurkat cells (C) or the […] domain overexpressing Jurkat cells (D). Cell death was evaluated as described under "Materials and Methods". Bars, the mean ± SE of three independent experiments performed in triplicate. *** P<0.001 (Anova/Bonferroni), n.s., not significant.
Cell Culture. […]
Detection an Quantification of Apoptosis. Quantification of apoptosis was performed according to Nicoletti et al. (J Immunol. Methods (1991) 139, 271-279). Briefly, cells were incubated for 24 h in a hypotonic buffer (0.1% sodium citrate, 0.1% Triton-X-100 and 50 µg/ml PI) and analyzed by flow cytometry on a FACSCalibur (Becton Dickinson, Heidelberg, Germany). […]

The subject of another test is caspase-9. Put plainly: Caspase-9 activity assay (Ac-LEHD-AFC substrate). Type of test: cell-based, Human. To be noted: 25µM compound with 500nM etoposide, wild type Jurkat cells (Figure 3). How it is done:
as §1, §2

Where [4] appears, read: Etoposide 0.75µM and Substance 25µM.

T1 sequence (P98170 whole entry): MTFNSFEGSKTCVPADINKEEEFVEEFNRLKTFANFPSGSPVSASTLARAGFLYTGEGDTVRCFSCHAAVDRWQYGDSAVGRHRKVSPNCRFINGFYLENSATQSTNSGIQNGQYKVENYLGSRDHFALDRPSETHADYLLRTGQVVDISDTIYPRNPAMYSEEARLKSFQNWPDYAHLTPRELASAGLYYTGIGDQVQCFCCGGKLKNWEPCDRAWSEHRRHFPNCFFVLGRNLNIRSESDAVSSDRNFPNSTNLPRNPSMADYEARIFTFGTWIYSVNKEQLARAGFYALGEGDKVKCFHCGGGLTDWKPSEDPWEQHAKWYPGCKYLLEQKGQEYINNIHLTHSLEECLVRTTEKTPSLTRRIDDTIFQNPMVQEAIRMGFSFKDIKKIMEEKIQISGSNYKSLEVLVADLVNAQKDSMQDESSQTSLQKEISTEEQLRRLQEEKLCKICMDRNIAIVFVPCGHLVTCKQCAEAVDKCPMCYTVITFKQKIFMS

As for `CCc1cccc(CC)c1NC(=O)CN1CCC(NC(=O)c2cccc(F)c2)CC1` [Compound I-1], the “Percentage of apoptotic Jurkat cells” value in test [1] (setting [4]) was 65.7% and 65.74±6.0%; in test [1] (Substance 25µM alone) it was 13.16±2.28%. The “clonogenic survival of etoposide treated Jurkat cells” value with Wildtype Jurkat cells is “sensitizes for reduction of clonogenic survival of etoposide treated Jurkat cells”. Also, the “caspase-3 activity induced by etoposide” value with caspase-3 is reported as “significantly increased”. Also, the “cleavage of caspase-9 and -3 proforms as well as PARP induced by etoposide” value in test [2] is “strong impact of compound I-1 on cleavage of caspase-9 and -3 proforms as well as PARP”. Also, the XIAP protein level entry on XIAP is “able to reduce XIAP protein after 16 and 24 h”. The “apoptosis induced by subtoxic concentrations of etoposide” value in test [3] was “potentiates apoptosis induced by subtoxic concentrations of etoposide”. Also, the “caspase-9 activity induced by etoposide” value in the test on caspase-9 is reported as “significantly increased”.
As for `COc1cc([C@@H]2c3cc4c(cc3[C@@H](O[C@@H]3O[C@@H]5CO[C@@H](C)O[C@H]5[C@H](O)[C@H]3O)[C@H]3COC(=O)[C@H]23)OCO4)cc(OC)c1O` [Etoposide, reference compound], the “Percentage of apoptotic Jurkat cells” value in test [1] (Etoposide 0.75µM alone) is 30.66±9.89% and 31.31±2.74%.
`NNC(=O)CNC(c1ccccc1)c1cc(Br)ccc1NC(=O)c1ccccc1Br` (centres unmarked) [II-1]: the “Percentage of apoptotic Jurkat cells” value in test [1] (setting [4]) was 55.8% and 55.82±12.23%; in test [1] (Substance 25µM alone) it was 10.69±1.25%.
